Results as given in publication PMC8781960, “Structural Basis of 2-Phenylamino-4-phenoxyquinoline Derivatives as Potent HIV-1 Non-Nucleoside Reverse Transcriptase Inhibitors” (Molecules, 2022).
Marks after values point to notes of the source that are not given here.

Key:
HIV-1 RT = target: T1, HIV-1 RT (Human immunodeficiency virus type 1 group M subtype B, UniProt P03366); experiment: HIV-1 RT inhibition assay (Roche RT kit, colorimetric ELISA); type: biochemical; conditions: for inhibition at 1 µM: read-out: Inhibitory activities (%) against HIV-1 RT
T1 construct: The reaction mixture consisted of template/primer complex, 2′-deoxy-nucleotide-5′-triphosphates (dNTPs), and RT enzyme in lysis buffer; purchased Roche Applied Science, Mannheim, Germany
Text: The inhibition assay of HIV-1 RT was accomplished using the template/primer hybrid poly(A) × oligo(dT)15, digoxigenin (DIG)- and biotin-labeled nucleotides, an antibody to DIG that was conjugated to peroxidase (anti-DIG-POD), and the peroxidase substrate ABTS. The quantities of DIG- and biotin-labeled dUTP incorporated into DNA represent t HIV-1 RT activity. The HIV-RT inhibition assay was implemented using an RT assay kit (Roche Applied Science, Mannheim, Germany), and the procedures for assaying RT inhibition were performed as described in the kit protocol. […] The reaction mixture consisted of template/primer complex, 2′-deoxy-nucleotide-5′-triphosphates (dNTPs), and RT enzyme in lysis buffer with or without an inhibitor. […] The biotin-labeled dNTPs that were incorporated in the template bound to streptavidin because of the presence of RT. Unbound dNTPs were washed using a wash buffer, and anti-DIG-POD was added to the MTP. The DIG-labeled dNTPs incorporated in the template bound to the anti-DIG-POD antibody. Unbound anti-DIG-POD was also washed elaborately five times using a wash buffer. Finally, the peroxide substrate (ABST) was added to the MTP. A colored reaction product emerged during the cleavage of the substrate catalyzed by […]. The absorbance of the sample was measured at the optical density (OD) at 490 nm using the MTP (enzyme-linked immunosorbent assay [ELISA]) reader. The percentage inhibitory activities of the RT inhibitors were calculated by comparing with that of the sample without an inhibitor. The resulting color intensity was directly proportional to the RT activity. Percentage inhibitory values were calculated using the following formula: Inhibition (%) = [1–(OD value with RT and inhibitor−OD value without RT and inhibitors)/(OD value without inhibitors with RT−OD value without RT and inhibitors)] × 100.

[1] = tested on: MOLT-3 (acute lymphoblastic leukemia); experiment: In vitro cytotoxicity (XTT); conditions: for IC50: Homo sapiens, MOLT-3, 48 h, read-out: IC50 MOLT-3; for %C percentage cytotoxicity MOLT-3: at 50 µg/mL, inactive (IC50 ≥ 50 µg/mL)
Method: (§1) Background control wells contained the same volume as the complete culture medium. […] Samples at various concentrations were added to the microplate and incubated for another 48 h. Cell viability was determined by 3(4,5-dimethylthiazol-2-yl)-2-5-diphenyl tetrazolium bromide (MTT) assay (Sig-ma-Aldrich). The reagent was dissolved in phosphate-buffered saline at 5 mg/mL and filtered to sterilize and remove the small amount of insoluble residue present in some batches of MTT. […] Subsequently, dimethyl sulfoxide (100 µL; Merck, Germany) was added to dissolve the resulting formazan by sonication. The plates were read on a microplate reader (Molecular Devices, CA, USA) using a test wavelength of 550 nm and a reference wavelength of 650 nm. XTT assay for suspension cells was used for MOLT-3 cells.

[2] = tested on: MDA-MB-231 (hormone-independent breast cancer); experiment: In vitro cytotoxicity (MTT); conditions: for %C percentage cytotoxicity MDA-MB-231: at 50 µg/mL, inactive (IC50 ≥ 50 µg/mL); for IC50: Homo sapiens, MDA-MB-231, 48 h, read-out: IC50 MDA-MB-231
Method: as §1

[3] = tested on: HeLA (cervical carcinoma); experiment: In vitro cytotoxicity (MTT); conditions: for IC50: Homo sapiens, HeLa, 48 h, read-out: IC50 HeLA; for %C percentage cytotoxicity HeLA: at 50 µg/mL, inactive (IC50 ≥ 50 µg/mL)
Method: as §1

A549 (lung carcinoma) = experiment: In vitro cytotoxicity (MTT); conditions: for %C percentage cytotoxicity A549: at 50 µg/mL, inactive (IC50 ≥ 50 µg/mL); for IC50: Homo sapiens, A549, 48 h, read-out: IC50 A549
Method: as §1

S102 (Thai liver cancer) = experiment: In vitro cytotoxicity (MTT); conditions: for %C percentage cytotoxicity S102: at 50 µg/mL, inactive (IC50 ≥ 50 µg/mL); for IC50: Homo sapiens, 48 h, read-out: IC50 S102
Method: as §1

[4] = tested on: T47-D (hormone-dependent breast cancer); experiment: In vitro cytotoxicity (MTT); conditions: for %C percentage cytotoxicity T47-D: at 50 µg/mL, inactive (IC50 ≥ 50 µg/mL); for IC50: Homo sapiens, T47D, 48 h, read-out: IC50 T47-D
Method: as §1

HepG2 (hepatocarcinoma) = experiment: In vitro cytotoxicity (MTT); conditions: for IC50: Homo sapiens, HepG2, 48 h, read-out: IC50 HepG2; for %C percentage cytotoxicity HepG2: at 50 µg/mL, inactive (IC50 ≥ 50 µg/mL)
Method: as §1

[5] = tested on: HuCCA-1 (cholangiocarcinoma); experiment: In vitro cytotoxicity (MTT); conditions: for IC50: Homo sapiens, HuCC-A1, 48 h, read-out: IC50 HuCCA-1; for %C percentage cytotoxicity HuCCA-1: at 50 µg/mL, inactive (IC50 ≥ 50 µg/mL)
Method: as §1

HL-60 (promyeloblast) = experiment: In vitro cytotoxicity (MTT); conditions: for IC50: Homo sapiens, HL-60, 48 h, read-out: IC50 HL-60; for %C percentage cytotoxicity HL-60: at 50 µg/mL, inactive (IC50 ≥ 50 µg/mL)
Method: as §1

[6] = tested on: H69AR (lung cancer, multidrug resistant); experiment: In vitro cytotoxicity (MTT); type: cell-based, human; conditions: 48 h; for %C percentage cytotoxicity H69AR: human, 50 µg/mL; for IC50: Homo sapiens, H69AR, mean ± standard error
Method: Background control wells contained the same volume as the complete culture medium. […] The reagent was dissolved in phosphate-buffered saline at 5 mg/mL and filtered to sterilize and remove the small amount of insoluble residue present in some batches of MTT. […] Subsequently, dimethyl sulfoxide (100 µL; Merck, Germany) was added to dissolve the resulting formazan by sonication. The plates were read on a microplate reader (Molecular Devices, CA, USA) using a test wavelength of 550 nm and a reference wavelength of 650 nm.

[7] = tested on: MRC-5 (normal embryonic lung cell); experiment: In vitro cytotoxicity (MTT), normal cell line; conditions: for IC50: Homo sapiens, MRC5, 48 h, read-out: IC50 MRC-5; for %C percentage cytotoxicity MRC-5: normal cell line, at 50 µg/mL, inactive (IC50 ≥ 50 µg/mL)
Method: as §1

Row | Compound | inhibition at 1 µM (HIV-1 RT) | IC50 [1] | melting point | IC50 [3] | %C percentage cytotoxicity A549 (A549 (lung carcinoma)) | %C percentage cytotoxicity S102 (S102 (Thai liver cancer)) | %C percentage cytotoxicity T47-D [4] | IC50 (HepG2 (hepatocarcinoma)) | IC50 [5] | IC50 (HL-60 (promyeloblast)) | %C percentage cytotoxicity H69AR [6] | IC50 [7] | IC50 [2] | IC50 (A549 (lung carcinoma)) | IC50 [4] | IC50 [6] | %C percentage cytotoxicity MOLT-3 [1] | %C percentage cytotoxicity HeLA [3] | %C percentage cytotoxicity HL-60 (HL-60 (promyeloblast)) | %C percentage cytotoxicity MRC-5 [7] | also measured
1 | O=Cc1ccc(Oc2cc(Oc3ccc(C=O)cc3)c3ccccc3n2)cc1 [Compound 4a, 2,4-di-(4′-formylphenoxy)-quinoline] | 17.3 ± 2.4% | 25.1 ± 2.6 µM | 164.9 to 165.5 °C | 104 ± 7.9 µM | %C = 40.0 ^c | %C = 0.4 ^c | %C = 34.0 ^c | 90.9 ± 2.1 µM | 48.1 ± 1.7 µM | 92.4 ± 3.1 µM | %C = 0.0 ^c | 84.3 ± 9.6 µM |  |  |  |  |  |  |  |  | %C percentage cytotoxicity MDA-MB-231 [2]: %C = 43.3 ^c
2 | Cc1cc(C=O)cc(C)c1Oc1cc(Oc2c(C)cc(C=O)cc2C)c2ccccc2n1 [Compound 4b, 2,4-di-(2′,6′-Dimethyl-4′-formylphenoxy)-quinoline] | 42.1 ± 2.5% | 61.6 ± 0.7 µM | 120.5 to 121 °C | 5.3 ± 0.2 µM |  |  |  | 50.6 ± 1.2 µM | 11.1 ± 0.7 µM | 5.7 ± 2 µM |  | 60.4 ± 2 µM | 15.3 ± 1.6 µM | 38.5 ± 1.3 µM | 22.5 ± 3.3 µM | 30.9 ± 5.7 µM |  |  |  |  | IC50 (S102 (Thai liver cancer)): 89.4 ± 0.1 µM
3 | N#Cc1ccc(Oc2cc(Oc3ccc(C#N)cc3)c3ccccc3n2)cc1 [Compound 4c, 2,4-di-(4′-cyanophenoxy)-quinoline] | 30.9 ± 1.8% |  | 220.9 to 221.5 °C |  | %C = 12.0 ^c | %C = 23.7 ^c | %C = 27.0 ^c |  |  |  | %C = 21.0 ^c | 108 ± 6.4 µM | 92.5 ± 4.2 µM |  |  |  | %C = 11.0 ^c | %C = 23.0 ^c | %C = 15.0 ^c |  | %C percentage cytotoxicity HepG2 (HepG2 (hepatocarcinoma)): %C = 41.4 ^c; %C percentage cytotoxicity HuCCA-1 [5]: %C = 15.0 ^c
4 | Cc1cc(C#N)cc(C)c1Oc1cc(Oc2c(C)cc(C#N)cc2C)c2ccccc2n1 [Compound 4d, 2,4-di-(2′,6′-Dimethyl-4′-cyanophenoxy)-quinoline] | 40.3 ± 3.3% |  | 201.8 to 202.4 °C |  |  | %C = 31.5 ^c |  | 92.2 ± 6.8 µM | 83.5 ± 11.1 µM |  | %C = 38.0 ^c |  | 92.5 ± 5 µM | 55.5 ± 5.7 µM | 55.2 ± 1.5 µM |  | %C = 13.0 ^c | %C = 40.0 ^c | %C = 23.0 ^c | %C = 26.9 ^c | 
5 | N#Cc1ccc(Nc2cc(Oc3ccc(C=O)cc3)c3ccccc3n2)nc1 [Compound 6a, 4-(4’-formylphenoxy)-2-(5″-cyanopyridin-2″ylamino)quinoline] | 19.4 ± 1.8% | 5.13 ± 1.5 µM | 248 to 249 °C | 15.4 ± 0.8 µM | %C = 42.0 ^c | %C = 31.7 ^c |  | 23.7 ± 1 µM | 14.9 ± 1.1 µM | 15 ± 1.8 µM |  | 18.3 ± 3.9 µM | 68 ± 2 µM |  | 46.3 ± 0.2 µM | 64.2 ± 2.5 µM |  |  |  |  | 
6 | Cc1cc(C=O)cc(C)c1Oc1cc(Nc2ccc(C#N)cn2)nc2ccccc12 [Compound 6b, 4-(2’,6’-Dimethyl-4’-formylphenoxy)-2-(5″-cyanopyridin-2″ylamino)quinoline] | 44.5 ± 2.8% | 12.7 ± 1.1 µM | 275.7 to 276.5 °C | 25.7 ± 0.8 µM |  |  | %C = 38.0 ^c | 92.8 ± 11.8 µM | 126 ± 1.8 µM | 20.5 ± 2.1 µM | %C = 21.0 ^c |  | 103 ± 1.9 µM | 108 ± 1.2 µM |  |  |  |  |  | %C = 26.1 ^c | IC50 (HIV-1 RT): 1.93 µM; IC50 (S102 (Thai liver cancer)): 112 ± 1.8 µM; cytotoxicity toward normal embryonic lung (MRC-5) cells, in words [7]: very low cytotoxicity
7 | N#Cc1ccc(Oc2cc(Nc3ccc(C#N)cn3)nc3ccccc23)cc1 [Compound 6c, 4-(4′-cyanophenoxy)-2-(5″-cyanopyridin-2″ylamino)quinoline] | 27.6 ± 2.1% | 14.1 ± 0.4 µM | 225.7 to 225.9 °C | 67.7 ± 0.6 µM |  | %C = 44.8 ^c |  | 101.7 ± 0.7 µM | 22.9 ± 0.9 µM |  |  | 69.2 ± 12.4 µM | 66.6 ± 3 µM | 14 ± 2.2 µM | 47.1 ± 3.3 µM | 66.2 ± 2.4 µM |  |  | %C = 9.0 ^c |  | 
8 | Cc1cc(C#N)cc(C)c1Oc1cc(Nc2ccc(C#N)cn2)nc2ccccc12 [Compound 6d, 4-(2′,6′-Dimethyl-4′-cyanophenoxy)-2-(5’’-cyanopyridin-2’’ylamino)quinoline] | 45.1 ± 1.5% |  | 229.4 to 230.3 °C |  | %C = 8.0 ^c | %C = 0.0 ^c | %C = 1.0 ^c |  |  |  | %C = 0.0 ^c |  |  |  |  |  | %C = 27.0 ^c | %C = 0.0 ^c | %C = 13.0 ^c | %C = 0.0 ^c | IC50 (HIV-1 RT): 1.22 µM; %C percentage cytotoxicity MDA-MB-231 [2]: %C = 8.3 ^c; %C percentage cytotoxicity HepG2 (HepG2 (hepatocarcinoma)): %C = 0.0 ^c; %C percentage cytotoxicity HuCCA-1 [5]: %C = 0.0 ^c; cytotoxicity toward normal embryonic lung (MRC-5) cells, in words [7]: no cytotoxicity
